# According to publication PMC9785397, “Exploiting Conserved Quorum Sensing Signals in Streptococcus mutans and Streptococcus pneumoniae” (Microorganisms, 2022):
# Key:
# F. nucleatum = experiment: microbe, parasite or virus in culture; type: cell-based, Fusobacterium nucleatum; conditions: peptides 0–50 μM, 16 h, 37 °C, anaerobic, A620 nm, three separate experiments
# Description: (§1) Streptococcus mutans Clarke (strain designation NCTC 10449), Pseudomonas aeruginosa (Schroeter) Migula (strain designation PAO1), Fusobacterium nucleatum, subspecies nucleatum (strain VPI 4355), and Porphyromonas gingivalis (strain 2561) were purchased from ATCC (LGC Standards Srl, Milan, Italy). Streptococcus mitis, Streptococcus oralis, and Streptococcus sanguinis were obtained from clinical isolates and characterized by morphological, biochemical, and molecular typing. S. mutans, S. mitis, S. oralis, and S. sanguinis were maintained in Brain Heart Infusion (BHI) broth or agar under microaerophilic conditions. P. aeruginosa was maintained in trypticase soy (TS) agar or broth. F. nucleatum was maintained in TS agar or broth with defibrinated sheep blood under anaerobic conditions. P. gingivalis was maintained in ATCC Medium 2722 supplemented with TS broth or agar under anaerobic conditions. Before the experiments, bacterial cultures were inoculated in fresh media (dilution 1:100) and grown for 16 h at 37 °C.
# (§2) The antimicrobial activities of the tested peptides were assessed through the determination of the minimum inhibitory concentration (MIC) standardized by the Clinical and Laboratory Standards Institute. Bacterial inocula were diluted in 10 mL of MHB […]. The concentration of the bacteria was adjusted to 0.5 McFarland standard, and the bacteria were dispensed in 96-well microtiter plates (final bacterial concentration: 1 × 10^4 CFU/well). Peptides were dissolved in sterile water (stock concentration: 2 mM) and added at final concentrations ranging from 0 to 50 µM. Plates were incubated at 37 °C for 16 h. At the end of incubation, bacterial growth was recorded using a microplate reader (Varioskan Lux Reader; Thermo Fisher Scientific, Milan, Italy) by quantifying the adsorption at 620 nm. Cultures were then opportunely diluted and seeded on agar plates. Bacterial cultures inoculated with the highest final concentration of the vehicle (sterile water) or chlorhexidine hydrochloride salt (CHX, concentration range: 0.05 to 500 μg/mL; Merck, Milan, Italy) were included as controls in each test. Experiments were performed in triplicate.
# P. gingivalis = experiment: microbe, parasite or virus in culture; type: cell-based, Porphyromonas gingivalis; conditions: peptides 0–50 μM, 16 h, 37 °C, anaerobic, A620 nm, three separate experiments
# Description: as §1, §2
# S. mutans = experiment: Bacterial growth kinetics; type: cell-based, Streptococcus mutans
# Protocol: Peptides were further evaluated for their potential effect in altering the growth kinetics in S. mutans. Overnight bacterial cultures were collected, centrifuged, and suspended in fresh BHI broth at 10^8 CFU/mL. Bacteria were dispensed in sterile 96-well microtiter plates at a final concentration of 1 × 10^6 CFU/100 µL and cultured with peptides or the vehicle at 37 °C for 36 h. Bacterial growth kinetics were monitored by measuring the optical density at 620 nm at different time points using Varioskan Lux Reader (Thermo Fisher Scientific).
# [1] = test system: S. mutans biofilm formation; experiment: Biofilm formation (crystal violet); type: cell-based, Streptococcus mutans; conditions: peptide 20 μM, 72 h, p < 0.05
# Protocol: Overnight cultures of S. mutans were diluted 1:1000 in a 1:10 solution of BHI broth supplemented with 0.2% w/v sucrose and artificial saliva (AS; 1.3 g/L KCl, 0.1 g/L NaCl, 0.05 g/L MgCl, 0.1 g/L CaCl2, 0.5 g/L peptone, 25 μg/L NaF, 27 mg/L KH2PO4, 35 mg/L K2HPO4, pH 6.8; all reagents purchased from Merck). Cultures were seeded into 96-well polystyrene microtiter plates (200 µL/well) and incubated at 37 °C under static conditions. To identify the time of incubation that is useful in obtaining a mature biofilm, plates were incubated for 16, 24, 48, 72, or 96 h. Half of the media was renewed every 24 h. At the end of incubations, the wells were emptied and washed three times with sterile PBS to remove planktonic cells. Adhering cells were incubated with resazurin 0.01% in the dark at 37 °C for 20 min [30]. In metabolically active cells, the non-fluorescent resazurin was reduced to highly fluorescent resorufin by dehydrogenase enzymes. The relative fluorescence units (RFU) of resorufin were measured using a fluorimeter (Ex = 530–570 nm, Em = 590–620 nm; Varioskan Lux Reader; Thermo Fisher Scientific).
# To assess the effect of the compounds on biofilm formation or mature biofilm, cultures of S. mutans were prepared as described above. […] The optical density was measured at 570 nm using a microplate reader (Varioskan Lux Reader; Thermo Fisher Scientific). […]
# [2] = test system: S. mutans bacteriocin production against S. sanguinis; experiment: Bacteriocin overlay assay, S. mutans spotted on S. sanguinis; type: cell-based, Streptococcus mutans; conditions: CSP1 20 μM alone vs vehicle, 16 h, 37 °C, microaerophilic
# Protocol: (§3) During the formation of complex biofilm such as dental plaque, the ability of S. mutans to compete with other commensal species determines the success of the cariogenesis process. S. mutans uses antibacterial peptides, namely, bacteriocins, to overcome and subvert the composition of dental microbiota. We investigated the production of bacteriocins using the overlay assay. Overnight cultures of S. mitis, S. oralis, S. sanguinis, P. aeruginosa, F. nucleatum, or P. gingivalis were diluted 1:100 in BHI or TS broth and incubated at 37 °C until they reached an OD620 of 0.3. Cultures were added with agar (BD Difco^TM Agar) at the final concentration of 1.5% w/v and transferred in plates. Overnight cultures of S. mutans were diluted 1:100 in BHI and added with peptides (20 μM) or the vehicle with or without CSP1. Culture media were supplemented with agar to reach the final concentration of 0.7% w/v. The solutions were spotted on the surface of agar plates prepared as described above. The plates were kept on the benchtop for 30 min, allowing the agar containing S. mutans to solidify, and then incubated at 37 °C for 16 h under microaerophilic or anaerobic conditions, as required.
# (§4) Spots (10 for each experimental group) were acquired and analyzed using NIH Image J software (version 1.53t August 2022, https://imagej.nih.gov/ij/index.html; accessed on 7 September 2022). The appearance of a clear area on the plate (bacterial growth inhibition) was evaluated as indicative of bacteriocin activity. The diameters of the area were measured in a blinded fashion.
# [3] = test system: S. mutans bacteriocin production against P. aeruginosa; experiment: Bacteriocin overlay assay, S. mutans spotted on P. aeruginosa; type: cell-based, Streptococcus mutans; conditions: CSP1 20 μM, microaerophilic, experimental control
# Protocol: as §3, with “The plates were kept on the benchtop for 30 min, allowing the agar containing S. mutans to solidify, and then incubated at 37 °C for 16 h under microaerophilic or anaerobic conditions, as required.” left out
# as §4
smiles,measurement,setting,value
CC[C@H](C)[C@H](NC(=O)[C@H](Cc1ccccc1)NC(=O)[C@H](CC(=O)O)NC(=O)[C@H](CCCNC(=N)N)NC(=O)[C@H](Cc1ccccc1)NC(=O)[C@H](Cc1ccccc1)NC(=O)[C@H](CCCCN)NC(=O)[C@H](CO)NC(=O)[C@H](CC(C)C)NC(=O)[C@H](CCCNC(=N)N)NC(=O)[C@H](CCSC)NC(=O)[C@@H](N)CCC(=O)O)C(=O)N[C@@H](CC(C)C)C(=O)N[C@@H](CCC(N)=O)C(=O)N[C@@H](CCCNC(=N)N)C(=O)N[C@@H](CCCCN)C(=O)N[C@@H](CCCCN)C(=O)O [CSP1],"Minimum inhibitory concentration (MIC), F. nucleatum",F. nucleatum,>50 µM
same,"Minimum inhibitory concentration (MIC), P. gingivalis",P. gingivalis,>50 µM
same,Effect on the growth (growth kinetics) of S. mutans,"S. mutans; 20 µM peptide, BHI broth, 37 °C, monitored 36 h, A620 nm, three experiments",no significant effects
same,Colony counting of S. mutans after incubation with the peptide,"S. mutans; 20 µM, data not shown",not affected
same,Effect on biofilm production vs. vehicle,[1],significantly increased
same,Growth inhibition of co-cultured S. sanguinis by S. mutans stimulated with peptide (diameter of clear area),[2],significantly inhibited the growth
same,Replication of P. aeruginosa in presence of S. mutans stimulated with peptide,[3],not affected
